Laboratory results as given in paper PMC7696755 (2020).

Assays:
[1] = tested on: AT-DNA (DNA, duplex) TATATATATATATATATATATATATATATATATATATATA; test: UV/Vis absorption titration (hypochromism); details: 137 mM NaCl, 2.7 mM KCl, PBS (10 mM phosphate), pH 7.4, room temperature, per base pair, intercalation, data not shown
[2] = tested on: AT-DNA (DNA, duplex) TATATATATATATATATATATATATATATATATATATATA; test: UV/Vis absorption titration (302 nm, hypochromism); details: 137 mM NaCl, 2.7 mM KCl, PBS (10 mM phosphate), pH 7.4, room temperature, per base pair, 15 µM 8-MOP, intercalation, before irradiation

KD [1] [µM]	KD [2] [µM]	SMILES
180		COc1c2ccoc2cc2oc(=O)ccc12
	1100	COc1c2occc2cc2ccc(=O)oc12
